# Assays:
# [1] = biological target: Epidermal growth factor receptor (Homo sapiens, UniProt P00533); test: Inhibition of EGFR kinase
# Mus musculus = test: Dose normalized AUC in po dosed mouse; type: ADME, organism-based; settings: in vivo
# HN5 = test: Antiproliferative activity against human HN5 cells overexpressing EGFR after 3 days by methylene blue staining; settings: HN5, 72 h
# [2] = biological target: Receptor tyrosine-protein kinase erbB-2 (Homo sapiens, UniProt P04626)
# Description: Inhibition of ErbB2 kinase
# BT-474 = test: Antiproliferative activity against human BT474 cells overexpressing ErbB2 after 3 days by methylene blue staining; settings: BT-474, 72 h
# [3] = Antiproliferative activity against human foreskin fibroblast after 3 days by methylene blue staining; settings: 72 h
# Epidermal growth factor receptor, sequence (P00533 whole entry): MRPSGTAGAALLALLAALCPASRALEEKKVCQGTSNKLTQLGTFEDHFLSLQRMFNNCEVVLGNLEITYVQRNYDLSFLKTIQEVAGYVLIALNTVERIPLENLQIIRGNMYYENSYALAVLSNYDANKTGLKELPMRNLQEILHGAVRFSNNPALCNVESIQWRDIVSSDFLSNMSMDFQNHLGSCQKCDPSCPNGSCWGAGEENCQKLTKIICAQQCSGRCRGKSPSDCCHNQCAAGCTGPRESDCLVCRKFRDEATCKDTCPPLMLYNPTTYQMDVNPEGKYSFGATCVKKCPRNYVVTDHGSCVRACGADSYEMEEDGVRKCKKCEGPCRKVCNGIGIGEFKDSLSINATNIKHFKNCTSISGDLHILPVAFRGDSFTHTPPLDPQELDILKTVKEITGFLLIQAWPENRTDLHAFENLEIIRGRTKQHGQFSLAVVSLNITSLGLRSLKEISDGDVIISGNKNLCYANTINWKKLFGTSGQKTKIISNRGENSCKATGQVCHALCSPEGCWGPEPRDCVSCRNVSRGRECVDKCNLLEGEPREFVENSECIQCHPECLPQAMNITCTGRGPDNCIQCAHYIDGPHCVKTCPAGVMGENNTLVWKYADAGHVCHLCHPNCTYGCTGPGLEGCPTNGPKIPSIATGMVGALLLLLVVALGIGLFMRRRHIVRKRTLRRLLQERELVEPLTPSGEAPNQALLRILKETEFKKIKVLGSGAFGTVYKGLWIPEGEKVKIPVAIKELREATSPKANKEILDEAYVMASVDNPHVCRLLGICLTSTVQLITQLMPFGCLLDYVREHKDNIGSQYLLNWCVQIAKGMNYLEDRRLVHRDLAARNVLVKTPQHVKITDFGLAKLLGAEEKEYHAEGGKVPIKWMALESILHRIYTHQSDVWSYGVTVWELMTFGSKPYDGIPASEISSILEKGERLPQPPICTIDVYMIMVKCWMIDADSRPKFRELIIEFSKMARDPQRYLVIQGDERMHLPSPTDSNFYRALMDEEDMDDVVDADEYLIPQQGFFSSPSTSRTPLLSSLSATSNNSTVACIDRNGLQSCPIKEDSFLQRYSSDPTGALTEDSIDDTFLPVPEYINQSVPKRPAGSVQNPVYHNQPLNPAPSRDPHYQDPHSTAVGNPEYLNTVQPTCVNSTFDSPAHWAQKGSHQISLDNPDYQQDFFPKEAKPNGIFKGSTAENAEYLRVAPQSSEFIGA
# Receptor tyrosine-protein kinase erbB-2, sequence (P04626 whole entry): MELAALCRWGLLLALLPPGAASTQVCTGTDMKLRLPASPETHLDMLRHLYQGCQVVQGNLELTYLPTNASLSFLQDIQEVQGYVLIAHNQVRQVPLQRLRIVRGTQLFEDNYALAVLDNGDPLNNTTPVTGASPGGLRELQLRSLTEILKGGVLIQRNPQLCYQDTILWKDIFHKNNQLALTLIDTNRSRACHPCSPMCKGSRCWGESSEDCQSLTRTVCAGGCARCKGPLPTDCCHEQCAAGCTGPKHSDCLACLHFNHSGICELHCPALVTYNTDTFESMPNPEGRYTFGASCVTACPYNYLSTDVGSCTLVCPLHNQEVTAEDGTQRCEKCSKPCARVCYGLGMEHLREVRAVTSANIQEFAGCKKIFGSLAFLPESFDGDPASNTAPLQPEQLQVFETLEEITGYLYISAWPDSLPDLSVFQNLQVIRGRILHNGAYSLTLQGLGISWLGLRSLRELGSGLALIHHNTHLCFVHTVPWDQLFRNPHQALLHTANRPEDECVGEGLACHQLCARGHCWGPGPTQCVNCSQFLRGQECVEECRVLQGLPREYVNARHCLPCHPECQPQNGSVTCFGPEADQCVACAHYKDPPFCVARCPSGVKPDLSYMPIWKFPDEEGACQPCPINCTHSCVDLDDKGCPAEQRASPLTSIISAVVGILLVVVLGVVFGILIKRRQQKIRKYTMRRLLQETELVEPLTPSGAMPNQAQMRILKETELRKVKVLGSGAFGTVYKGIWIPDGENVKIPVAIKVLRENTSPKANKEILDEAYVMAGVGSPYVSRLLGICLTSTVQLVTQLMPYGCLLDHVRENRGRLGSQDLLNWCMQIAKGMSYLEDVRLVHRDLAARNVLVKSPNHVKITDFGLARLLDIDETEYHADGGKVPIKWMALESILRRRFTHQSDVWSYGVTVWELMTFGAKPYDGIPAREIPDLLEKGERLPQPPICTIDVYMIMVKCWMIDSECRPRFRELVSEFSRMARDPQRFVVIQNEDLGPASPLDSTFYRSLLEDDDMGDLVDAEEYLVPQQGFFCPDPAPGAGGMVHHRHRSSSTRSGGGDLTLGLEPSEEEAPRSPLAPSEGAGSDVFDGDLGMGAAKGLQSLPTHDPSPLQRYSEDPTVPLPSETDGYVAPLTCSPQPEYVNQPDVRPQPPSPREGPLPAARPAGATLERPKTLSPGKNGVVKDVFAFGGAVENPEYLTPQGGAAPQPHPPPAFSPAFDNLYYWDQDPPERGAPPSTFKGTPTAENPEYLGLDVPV
SMILES,IC50 [1],AUC (Mus musculus),IC50 (HN5),IC50 [2],IC50 (BT-474),IC50 [3]
CNC(=O)O[C@H]1CN[C@H](C#Cc2cc3ncnc(Nc4ccc(OCc5cccc(F)c5)c(Cl)c4)c3s2)C1,50 nM,18 ng·kg·h/mg/mL,58 nM,20 nM,28 nM,> 1000 nM
CS(=O)(=O)N1CCC[C@@H]1C#Cc1cc2ncnc(Nc3ccc(OCc4cccc(F)c4)c(Cl)c3)c2s1,120 nM,–,550 nM,88 nM,650 nM,> 1000 nM
CC(=O)N1CCC[C@@H]1C#Cc1cc2ncnc(Nc3ccc(OCc4cccc(F)c4)c(Cl)c3)c2s1,58 nM,–,37 nM,38 nM,670 nM,> 1000 nM
Fc1cccc(COc2ccc(Nc3ncnc4cc(C#C[C@@H]5CCCN5)sc34)cc2Cl)c1,109 nM,–,536 nM,54 nM,205 nM,> 1000 nM
Fc1cccc(COc2ccc(Nc3ncnc4cc(C#C[C@H]5CCCN5)sc34)cc2Cl)c1,–,–,238 nM,–,94 nM,> 1000 nM
CCO[C@H]1CN[C@H](C#Cc2cc3ncnc(Nc4ccc(OCc5cccc(F)c5)c(Cl)c4)c3s2)C1,115 nM,–,99 nM,98 nM,45 nM,> 1000 nM
COC(=O)N1CCC[C@@H]1C#Cc1cc2ncnc(Nc3ccc(OCc4cccc(F)c4)c(Cl)c3)c2s1,140 nM,–,590 nM,120 nM,1700 nM,> 1000 nM
O[C@H]1CN[C@H](C#Cc2cc3ncnc(Nc4ccc(OCc5cccc(F)c5)c(Cl)c4)c3s2)C1,–,9 ng·kg·h/mg/mL,–,11 nM,39 nM,> 1000 nM
CS(=O)(=O)O[C@H]1CN[C@H](C#Cc2cc3ncnc(Nc4ccc(OCc5cccc(F)c5)c(Cl)c4)c3s2)C1,81 nM,–,380 nM,40 nM,86 nM,> 1000 nM
CCC(=O)O[C@H]1CN[C@H](C#Cc2cc3ncnc(Nc4ccc(OCc5cccc(F)c5)c(Cl)c4)c3s2)C1,63 nM,–,52 nM,90 nM,18 nM,> 1000 nM
CCOC(=O)O[C@H]1CN[C@H](C#Cc2cc3ncnc(Nc4ccc(OCc5cccc(F)c5)c(Cl)c4)c3s2)C1,141 nM,–,200 nM,135 nM,34 nM,> 1000 nM
CCS(=O)(=O)N[C@H]1CN[C@H](C#Cc2cc3ncnc(Nc4ccc(OCc5cccc(F)c5)c(Cl)c4)c3s2)C1,50 nM,–,127 nM,–,42 nM,> 1000 nM
COCCN1CCC[C@@H]1C#Cc1cc2ncnc(Nc3ccc(OCc4cccc(F)c4)c(Cl)c3)c2s1,130 nM,–,190 nM,–,–,> 1000 nM
CCOC(=O)N[C@H]1CN[C@H](C#Cc2cc3ncnc(Nc4ccc(OCc5cccc(F)c5)c(Cl)c4)c3s2)C1,60 nM,–,113 nM,78 nM,40 nM,> 1000 nM
CN(C)C(=O)O[C@H]1CN[C@H](C#Cc2cc3ncnc(Nc4ccc(OCc5cccc(F)c5)c(Cl)c4)c3s2)C1 [GSK-182497A],–,–,–,–,30 nM,> 1000 nM
CCNC(=O)O[C@H]1CN[C@H](C#Cc2cc3ncnc(Nc4ccc(OCc5cccc(F)c5)c(Cl)c4)c3s2)C1 [GSK-192082A],32 nM,61 ng·kg·h/mg/mL,95 nM,–,30 nM,> 1000 nM
O=C(O[C@H]1CN[C@H](C#Cc2cc3ncnc(Nc4ccc(OCc5cccc(F)c5)c(Cl)c4)c3s2)C1)N1CCOCC1 [GW869810X],–,–,–,–,30 nM,> 1000 nM
